3 compounds from patent publication US20090062130A1, “NUCLEOSOME-BASED BIOSENSOR” (UNIVERSITY OF PITTSBURGH - OF THE COMMONWEALTH SYSTEM OF …, priority 2006, published 2009) can be followed below.

The subject of assay [1] is ER. The following applies: ligand plus estrogen receptor plus Brg1 complex. On the procedure: To reconstitute specific chromatin remodeling in vitro, one would co-incubate wild type or mutant ERE-containing nucleosomes with E2/ER or ICI/ER as in D2.2a. Equimolar Brg1, obtainable from Jena Biosciences (Dortmund, Germany), would be added and measurement would be made of the FRET loss that is specific to wt ERE-containing nucleosomes in a buffer of 12 mM HEPES, pH 7.9, 60 mM KCl, 15% glycerol, catalase, 10 mM DTT, 2 mM MgCl2, 4 mM ATP, 0.4% (w/v) glucose, 0.1 mg/ml glucose oxidase, and 0.02 mg/ml catalase. In the absence of measurable FRET loss, Flag-tagged BAF57, BAF155 and BAF170 could 1 be added in a 2:1 ratio, relative to Brg1, in keeping with observations in publication 69. Ligand-dependent measurement of FRET loss would be monitored.
The remodeling reaction is expected to be ATP-dependent. This would be tested by ATP deletion in relation to incubation conditions that had decreased FRET. Also, initial validation of reagents would be effected done through measurement of micrococcal nuclease sensitivity of the mononucleosome bound DNA.

Assay [2] has as its system ER. The following applies: recombinant protein system, equimolar estrogen, ICI, tamoxifen, cholesterol. The source says: Use of a recombinant protein system would be preferred to use of cell extracts in this context. A recombinant protein system would facilitate modulation of component stoichiometries.

Chain of ER (P03372 whole entry): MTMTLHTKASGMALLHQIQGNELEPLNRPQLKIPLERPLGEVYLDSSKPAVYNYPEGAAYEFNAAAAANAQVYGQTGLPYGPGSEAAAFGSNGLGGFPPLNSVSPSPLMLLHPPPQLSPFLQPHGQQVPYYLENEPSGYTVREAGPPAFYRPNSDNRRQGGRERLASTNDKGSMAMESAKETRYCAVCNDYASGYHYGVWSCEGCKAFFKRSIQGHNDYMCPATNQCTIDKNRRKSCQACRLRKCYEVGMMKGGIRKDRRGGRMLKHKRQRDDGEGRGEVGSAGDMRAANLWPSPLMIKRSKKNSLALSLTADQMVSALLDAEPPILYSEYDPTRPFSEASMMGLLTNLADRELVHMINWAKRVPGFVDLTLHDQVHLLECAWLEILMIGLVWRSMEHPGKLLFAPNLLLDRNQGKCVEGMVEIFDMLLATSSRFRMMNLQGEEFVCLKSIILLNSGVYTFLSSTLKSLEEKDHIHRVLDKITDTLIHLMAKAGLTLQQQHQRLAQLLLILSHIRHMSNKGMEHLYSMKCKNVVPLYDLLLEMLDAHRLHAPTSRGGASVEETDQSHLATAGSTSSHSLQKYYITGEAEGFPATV

For the compound Vitamin D3, in the assay with ER [1], the “loss of FRET signal” value was “negative controls”.

As for `CC(C)CCC[C@@H](C)[C@H]1CC[C@H]2[C@@H]3CC=C4C[C@@H](O)CC[C@]4(C)[C@H]3CC[C@]12C` [cholesterol], the “loss of FRET signal” value in the assay on ER [1] is recorded as “negative controls”. In the assay with ER [2], the “distribution of ligand into sorted pools” value was “would not be carried forward through the sort”. For the compound `C[C@]12CC[C@@H]3c4ccc(O)cc4C[C@@H](CCCCCCCCC[S+]([O-])CCCC(F)(F)C(F)(F)F)[C@H]3[C@@H]1CC[C@@H]2O` (stereo partly shown) [ICI, ICI182780], the “loss of FRET signal” value with ER [1] is “negative controls”.
